Experimental data taken from patent US12084472B2 (Ardelyx, Inc., priority 2015, dated 2024).

Target: T1, human TGR5 (Homo sapiens, UniProt Q8TDU6)
T1 construct: expressed in transfected cells; host or cells: HEK293
T1 sequence (Q8TDU6 1-330): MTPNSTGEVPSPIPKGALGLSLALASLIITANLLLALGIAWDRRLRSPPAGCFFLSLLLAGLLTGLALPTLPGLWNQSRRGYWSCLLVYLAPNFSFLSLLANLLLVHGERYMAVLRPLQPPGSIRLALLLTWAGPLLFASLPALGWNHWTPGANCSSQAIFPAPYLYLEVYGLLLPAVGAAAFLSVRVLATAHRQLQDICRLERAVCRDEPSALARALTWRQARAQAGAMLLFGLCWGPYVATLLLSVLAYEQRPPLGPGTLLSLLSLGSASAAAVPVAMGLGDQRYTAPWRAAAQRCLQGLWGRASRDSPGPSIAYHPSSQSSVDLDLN
Assay: Cell-based TGR5 assay (cAMP generation, HTRF)
Conditions: HEK293 cells stably transfected with human TGR5; cAMP by HTRF; 30 minutes at 37° C.; read-out: pEC50 Human TGR5 (converted)
Summary of the method: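 First, compounds in 3-fold serial dilution were placed in HBSS with 10 mM HEPES pH 7.4 and 0.5 mM IBMX. Next, human TGR5-expressing HEK293 cells were added and incubated 30 min at 37° C. Finally, cAMP was detected by HTRF and pEC50 derived by logistic fitting.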

Structure (SMILES) | EC50 [nM]
O=C([C@@H](O)[C@@H](O)[C@H](O)[C@@H](O)CO)N(CCCSc1ccc(Cl)c(COC2(c3cnccc3-c3ccccc3OC3CC3)CC2)c1)CC1CCOCC1 [Compound I-522, (2S,3S,4R,5S)-N-(3-{[4-chloro-3-({1-[4-(2-cyclopropoxyphenyl)pyridin-3-yl]cyclopropoxy}methyl)phenyl]sulfanyl}propyl)-2,3,4,5,6-pentahydroxy-N-(oxan-4-ylmethyl)hexanamide] | 126 to 1000
CN(C[C@H](O)[C@@H](O)[C@H](O)[C@H](O)CO)C(=O)CC1(CSc2ccc(Cl)c(COC3(c4cnccc4-c4ccccc4OC4CC4)CC3)c2)CC1 [Compound I-679, 2-[1-({[4-chloro-3-({1-[4-(2-cyclopropoxyphenyl)pyridin-3-yl]cyclopropoxy}methyl)phenyl]sulfanyl}methyl)cyclopropyl]-N-methyl-N-[(2S,3R,4R,5R)-2,3,4,5,6-pentahydroxyhexyl]acetamide] | < 100
O=C(NC[C@H](O)[C@@H](O)[C@H](O)[C@H](O)CO)NC1CC2(C1)CN(S(=O)(=O)c1ccc(Cl)c(COC3(c4cnccc4-c4ccccc4OC4CC4)CC3)c1)C2 [Compound I-430, 1-{2-[4-chloro-3-({1-[4-(2-cyclopropoxyphenyl)pyridin-3-yl]cyclopropoxy}methyl)benzenesulfonyl]-2-azaspiro[3.3]heptan-6-yl}-3-[(2S,3R,4R,5R)-2,3,4,5,6-pentahydroxyhexyl]urea] | 126 to 1000
CN(C[C@H](O)[C@@H](O)[C@H](O)[C@H](O)CO)C(=O)CCCCc1cc(Cl)c(COC2(c3cnccc3-c3ccccc3OC3CC3)CC2)cc1Cl [Compound I-136, 5-[2,5-dichloro-4-({1-[4-(2-cyclopropoxyphenyl)pyridin-3-yl]cyclopropoxy}methyl)phenyl]-N-methyl-N-[(2S,3R,4R,5R)-2,3,4,5,6-pentahydroxyhexyl]pentanamide] | < 100
O=C(NCCC1CCN(S(=O)(=O)c2ccc(Cl)c(COC3(c4cnccc4-c4ccccc4OC4CC4)CC3)c2)CC1)[C@@H](O)[C@@H](O)[C@H](O)[C@@H](O)CO [Compound I-462, (2S,3S,4R,5S)-N-(2-{1-[4-chloro-3-({1-[4-(2-cyclopropoxyphenyl)pyridin-3-yl]cyclopropoxy}methyl)benzenesulfonyl]piperidin-4-yl}ethyl)-2,3,4,5,6-pentahydroxyhexanamide] | < 100
CN(C[C@H](O)[C@@H](O)[C@H](O)[C@H](O)CO)C(=O)CC1CN(S(=O)(=O)c2ccc(Cl)c(COC3(c4cnccc4-c4ccccc4OC4CC4)CC3)c2)C1 [Compound I-447, 2-{1-[4-chloro-3-({1-[4-(2-cyclopropoxyphenyl)pyridin-3-yl]cyclopropoxy}methyl)benzenesulfonyl]azetidin-3-yl}-N-methyl-N-[(2S,3R,4R,5R)-2,3,4,5,6-pentahydroxyhexyl]acetamide] | < 100
COCCN(C[C@H](O)[C@@H](O)[C@H](O)[C@H](O)CO)C(=O)CCCSc1ccc(Cl)c(COC2(c3cnccc3-c3ccccc3OC3CC3)CC2)c1 [Compound I-664, 4-{[4-chloro-3-({1-[4-(2-cyclopropoxyphenyl)pyridin-3-yl]cyclopropoxy}methyl)phenyl]sulfanyl}-N-(2-methoxyethyl)-N-[(2S,3R,4R,5R)-2,3,4,5,6-pentahydroxyhexyl]butanamide] | < 100
O=C(NCCCCC[S+]([O-])c1ccc(Cl)c(COC2(c3cnccc3-c3ccccc3OC3CC3)CC2)c1)N[C@@H](CO)[C@@H](O)[C@H](O)[C@H](O)CO (stereo partly drawn) [Compound I-642, 1-{5-[4-chloro-3-({1-[4-(2-cyclopropoxyphenyl)pyridin-3-yl]cyclopropoxy}methyl)benzenesulfinyl]pentyl}-3-[(2S,3R,4S,5R)-1,3,4,5,6-pentahydroxyhexan-2-yl]urea] | < 100
OC[C@@H](O)[C@@H](O)[C@H](O)[C@@H](O)CNCCCCc1cc(Cl)c(COC2(c3cnccc3-c3ccccc3OC3CC3)CC2)cc1Cl [Compound I-66, (2R,3R,4R,5S)-6-(4-(2,5-dichloro-4-((1-(4-(2-cyclopropoxyphenyl)pyridin-3-yl)cyclopropoxy)methyl)phenyl)butylamino)hexane-1,2,3,4,5-pentaol] | 126 to 1000
O=C(CCN1CCN(S(=O)(=O)c2ccc(Cl)c(COC3(c4cnccc4-c4ccccc4OC4CC4)CC3)c2)CC1)NC[C@H](O)[C@@H](O)[C@H](O)[C@H](O)CO [Compound I-443, 3-{4-[4-chloro-3-({1-[4-(2-cyclopropoxyphenyl)pyridin-3-yl]cyclopropoxy}methyl)benzenesulfonyl]piperazin-1-yl}-N-[(2S,3R,4R,5R)-2,3,4,5,6-pentahydroxyhexyl]propanamide] | 126 to 1000
Clc1ccc(Cl)c(COC2(c3cnccc3-c3ccccc3Cl)CC2)c1 [Compound I-768, 4-(2-chlorophenyl)-3-(1-((2,5-dichlorobenzyl)oxy)cyclopropyl)pyridine] | 126 to 1000
CC(C)N(CCCCNC(=O)N[C@@H](CO)[C@@H](O)[C@H](O)[C@H](O)CO)S(=O)(=O)c1ccc(Cl)c(COC2(c3cnccc3-c3ccccc3OC3CC3)CCOC2)c1 (stereo partly drawn) [Compound I-749, 4-chloro-3-(((3-(4-(2-cyclopropoxyphenyl)pyridin-3-yl)tetrahydrofuran-3-yl)oxy)methyl)-N-isopropyl-N-(4-(3-((2S,3R,4S,5R)-1,3,4,5,6-pentahydroxyhexan-2-yl)ureido)butyl)benzenesulfonamide] | < 100
Cc1cc(COC2(c3cnccc3-c3ccccc3OC3CC3)CC2)c(Cl)cc1CCCCNC(=O)NC[C@@H]1O[C@H](C(=O)O)[C@@H](O)[C@H](O)[C@H]1O [Compound I-110, (2S,3S,4R,5R,6S)-6-{[({4-[5-chloro-4-({1-[4-(2-cyclopropoxyphenyl)pyridin-3-yl]cyclopropoxy}methyl)-2-methylphenyl]butyl}carbamoyl)amino]methyl}-3,4,5-trihydroxyoxane-2-carboxylic acid] | < 100

Now from value to compound:

EC50 [nM] | Structure (SMILES)
< 100 | Cc1ccc(S(=O)(=O)N(C)CCCCNC(=O)NC[C@H](O)[C@@H](O)[C@H](O)[C@H](O)CO)cc1COC1(c2cnccc2-c2ccccc2OC2CC2)CC1 [Compound I-479, 1-{4-[N-methyl3-({1-[4-(2-cyclopropoxyphenyl)pyridin-3-yl]cyclopropoxy}methyl)-4-methylbenzenesulfonamido]butyl}-3-[(2S,3R,4R,5R)-2,3,4,5,6-pentahydroxyhexyl]urea]
126 to 1000 | CC(=O)NCCCN(CCCSc1ccc(Cl)c(CNC2(c3cnccc3-c3ccccc3OC3CC3)CC2)c1)C(=O)[C@@H](O)[C@@H](O)[C@H](O)[C@@H](O)CO [Compound I-589, (2S,3S,4R,5S)-N-[3-({4-chloro-3-[({1-[4-(2-cyclopropoxyphenyl)pyridin-3-yl]cyclopropyl}amino)methyl]phenyl}sulfanyl)propyl]-N-(3-acetamidopropyl)-2,3,4,5,6-pentahydroxyhexanamide]
< 100 | Cc1ccc(C(C)CCCN(C(=O)[C@@H](O)[C@@H](O)[C@H](O)[C@@H](O)CO)C2CCS(=O)(=O)CC2)cc1CNC1(c2cnccc2-c2ccccc2OC2CC2)CC1 (stereo partly drawn) [Compound I-306, (2S,3S,4R,5S)-N-(4-{3-[({1-[4-(2-cyclopropoxyphenyl)pyridin-3-yl]cyclopropyl}amino)methyl]-4-methylphenyl}pentyl)-N-(1,1-dioxo-1λ^6-thian-4-yl)-2,3,4,5,6-pentahydroxyhexanamide]
126 to 1000 | O=C1NCCN1CCN(CCCCSc1ccc(Cl)c(CNC2(c3cnccc3-c3ccccc3OC3CC3)CC2)c1)C(=O)[C@@H](O)[C@@H](O)[C@H](O)[C@@H](O)CO [Compound I-624, (2S,3S,4R,5S)-N-[4-({4-chloro-3-[({1-[4-(2-cyclopropoxyphenyl)pyridin-3-yl]cyclopropyl}amino)methyl]phenyl}sulfanyl)butyl]-2,3,4,5,6-pentahydroxy-N-[2-(2-oxoimidazolidin-1-yl)ethyl]hexanamide]
< 100 | O=C([C@@H](O)[C@@H](O)[C@H](O)[C@@H](O)CO)N(CCCCCSc1ccc(Cl)c(CNC2(c3cnccc3-c3ccccc3OC3CC3)CC2)c1)CCOCCO [Compound I-598, (2S,3S,4R,5S)-N-[5-({4-chloro-3-[({1-[4-(2-cyclopropoxyphenyl)pyridin-3-yl]cyclopropyl}amino)methyl]phenyl}sulfanyl)pentyl]-2,3,4,5,6-pentahydroxy-N-[2-(2-hydroxyethoxy)ethyl]hexanamide]
126 to 1000 | Cc1ccc(CCCCNC(=O)NC[C@H](O)[C@@H](O)[C@H](O)[C@H](O)CO)cc1COC1(c2cnccc2-c2ccccc2OC2CC2)CC1 [Compound I-239, 1-{4-[3-({1-[4-(2-cyclopropoxyphenyl)pyridin-3-yl]cyclopropoxy}methyl)-4-methylphenyl]butyl}-3-[(2S,3R,4R,5R)-2,3,4,5,6-pentahydroxyhexyl]urea]
< 100 | Cc1ccc(C(C)CCCC(=O)N(Cc2ccccc2)C[C@H](O)[C@@H](O)[C@H](O)[C@H](O)CO)cc1CNC1(c2cnccc2-c2ccccc2OC2CC2)CC1 (stereo partly drawn) [Compound I-259, N-benzyl-5-(3-(((1-(4-(2-cyclopropoxyphenyl)pyridin-3-yl)cyclopropyl)amino)methyl)-4-methylphenyl)-N-((2S,3R,4R,5R)-2,3,4,5,6-pentahydroxyhexyl) hexanamide]
< 100 | CSc1cc(CNC2(c3cnccc3-c3ccccc3OC3CC3)CC2)c(C)cn1 [Compound I-619, [4-(2-cyclopropoxyphenyl)pyridin-3-yl]-N-{[5-methyl-2-(methylsulfanyl)pyridin-4-yl]methyl}cyclopropan-1-amine]
